# Assay results taken from PubChem BioAssay (NCI).
#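 Test compounds were applied to cells in 96-well plates for 48 hours at 5 doses. TGI marks complete inhibition of growth.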
# How the values were obtained:
# Assay in all cases: NCI tumour cell line growth inhibition, 48 h
# HCT-15 colon = system: HCT-15 colon
# MDA-N = system: MDA-N
# HT29 colon = system: HT29 colon
# DLD-1 colon = system: DLD-1 colon
# DMS 114 small cell lung = system: DMS 114 small cell lung
# DMS 273 small cell lung = system: DMS 273 small cell lung
# M19-MEL melanoma = system: M19-MEL melanoma
# SNB-78 CNS = system: SNB-78 CNS
# XF 498 CNS = system: XF 498 CNS
SMILES,TGI (HCT-15 colon),TGI (MDA-N),TGI (HT29 colon),further results
O=c1c(-c2ccccc2)c(SCCCN2CCCCC2)n(-c2ccccc2)c(=S)n1-c1ccccc1,38.7 µM,–,–,–
O=c1c2ccccc2nc2n1CCc1c-2[nH]c2ccccc12,–,28.5 µM,–,–
NCCCCNOCCCN,–,> 100 µM,> 100 µM,–
C=CCN1C(=O)NC(=O)/C(=C/c2c3ccccc3cc3ccccc23)C1=O,–,–,37.9 µM,TGI (DLD-1 colon): 44.7 µM; TGI (DMS 114 small cell lung): 45.2 µM; TGI (DMS 273 small cell lung): 43.4 µM; TGI (M19-MEL melanoma): > 100 µM; TGI (SNB-78 CNS): > 100 µM; TGI (XF 498 CNS): 40.7 µM
CC(C)(CCCCC(C)(C)NC1=NCCO1)NC1=NCCO1,> 10 µM,> 10 µM,> 10 µM,–
COC(=O)C1=C(O)C(C(=O)OC)[C@@]2(O)[C@@H](C(=O)OC)[C@H](C)C[C@@H]1[C@@H]2C(=O)OC (some centres not stated),92.6 µM,31.4 µM,71.3 µM,–
